How the values were obtained:
Format in all cases: in vivo, Wistar rat
[1] = test system: rats exposed to acute altitude hypoxia; assay: Liver function of rats exposed to acute altitude hypoxia
Description: (§1) Select healthy Wistar rats weight 160-200 g, half female and half male. After feeding for 3 days, these Wistar rats are randomly divided into ten groups according to their body weight, each group has 16±2 rats. The groups are divided as follows: five groups of the hypoxic exposure drug test group, respectively, are given 0.91 mg/kg, 1.83 mg/kg, 3.66 mg/kg, 7.31 mg/kg, and 14.63 mg/kg drugs. […] After continuous intragastric administration for 7 days, the animals in the hypoxic exposure group are simultaneously put into the decompression and hypoxia compound experimental chamber, the hatch is closed, and the pressure is reduced at a speed of 10 m/s. After being raised to an altitude of 6000 m and maintained for 8 hours, the speed in 10 m/s drops is reduced to normal altitude, open the hatch, and then take out the animal, collect blood samples (after standing for 1 hour, the supernatant is centrifuged and stored at −20° C.), and liver tissue samples. Detection indicator includes body weight, serum blood glucose, ATP, lactic acid, endothelin, nitric oxide, SOD, CO, MDA related to oxidative stress, and total protein, albumin, triglycerides, total cholesterol, high-density lipoprotein cholesterol, low-density lipoprotein cholesterol, glutamic pyruvic transaminase, total bilirubin, gluamic oxalacetic transaminase, serum urea nitrogen, creatinine, uric acid, lactate dehydrogenase, creatine kinase, α-hydroxybutyrate dehydrogenase; liver ATP, hepatic glycogen. Except that the formal oxygen control animal group is not put into the decompression and hypoxia compound experimental chamber, other experimental conditions and detection indicators are the same.
(§2) Measure blood glucose, total protein, albumin, triglycerides, total cholesterol, high-density lipoprotein cholesterol, low-density lipoprotein cholesterol, glutamic-pyruvic transaminase, total bilirubin, glutamic oxalacetic transaminase, serum urea nitrogen, creatinine, uric acid, lactate dehydrogenase, creatine kinase, α-hydroxybutyrate dehydrogenase, blood homocysteine by using an automatic blood biochemical analyzer.

[2] = test system: rats exposed to acute altitude hypoxia; assay: Serum homocysteine in rats exposed to acute altitude hypoxia
Description: as §1, §2

[3] = test system: rats exposed to acute altitude hypoxia; assay: Endothelial function (serum endothelin-1, nitric oxide) in rats exposed to acute altitude hypoxia
Description: This method uses nitrate reductase specificity reduce NO^3− to NO^2−, and then determine the level of its concentration by displaying shades of color. Operate according to the kit instructions, measure the absorbance of each tube at a wavelength of 550 nm, and then calculate the content of nitric oxide of the sample to be tested according to the formula. To the coated microwells pre-coated with rat endothelin (endothelin-1) capture antibody, add in sequence specimens, standards, and HRP-labeled detection antibody, and then incubate and wash thoroughly. Use a substrate TMB for color development. TMB is converted into blue under the catalysis of peroxidase and converted into the final yellow color under the action of acid. The color intensity is positively correlated with the rat endothelin (endothelin-1) in the sample.

[4] = female rats, hypoxia, 0.91 mg/kg
[5] = female rats, hypoxia, 1.83 mg/kg
[6] = female rats, hypoxia, 3.66 mg/kg
[7] = female rats, hypoxia, 7.31 mg/kg
[8] = female rats, hypoxia, 14.63 mg/kg
[9] = female rats, normoxia, 3.66 mg/kg
[10] = male rats, hypoxia, 14.63 mg/kg
[11] = female rats after acute hypoxia exposure

## O=C(O)c1cc(C(=O)O)c2c(n1)C(=O)C(=O)c1cc(C(=O)O)[nH]c1-2 [PQQ, pyrroloquinoline quinone]
[1]; acute hypoxia exposed female rats
  effect on serum glutamic-pyruvic transaminase and glutamic oxalacetic transaminase activities: has been not found
[1]; [4]
  Glutamic oxalacetic transaminase: 80.71 ± 12.49 U
  Glutamic-pyruvic transaminase: 29.86 ± 4.30 U
[1]; [5]
  Glutamic oxalacetic transaminase: 84.71 ± 18.97 U
  Glutamic-pyruvic transaminase: 27.86 ± 6.28 U
[1]; [6]
  Glutamic oxalacetic transaminase: 82.29 ± 17.75 U
  Glutamic-pyruvic transaminase: 32.57 ± 5.35 U
[1]; [7]
  Glutamic oxalacetic transaminase: 79.29 ± 16.06 U
  Glutamic-pyruvic transaminase: 32.57 ± 6.37 U
[1]; [8]
  Glutamic oxalacetic transaminase: 83.00 ± 20.18 U
  Glutamic-pyruvic transaminase: 36.57 ± 8.52 U
[1]; female rats, normoxia
  effect on aspartate aminotransferase activity: slightly increasing
  effect on glutamic-pyruvic transaminase: no significant effect
[1]; [9]
  Glutamic oxalacetic transaminase: 120.29 ± 11.90 U
  Glutamic-pyruvic transaminase: 37.14 ± 4.45 U
[1]; male rats exposed to acute hypoxia
  effect on serum glutamic-pyruvic transaminase, glutamic oxalacetic transaminase and total bilirubin: is not found
[1]; male rats, hypoxia, 0.91 mg/kg
  Glutamic oxalacetic transaminase: 79.17 ± 15.66 U
  Glutamic-pyruvic transaminase: 36.63 ± 8.30 U
  Total bilirubin: 0.51 ± 0.12 µmol/L
[1]; male rats, hypoxia, 1.83 mg/kg
  Glutamic oxalacetic transaminase: 85.80 ± 13.80 U
  Glutamic-pyruvic transaminase: 40.63 ± 5.18 U
  Total bilirubin: 0.59 ± 0.12 µmol/L
[1]; male rats, hypoxia, 3.66 mg/kg
  Glutamic oxalacetic transaminase: 99.00 ± 15.52 U
  Glutamic-pyruvic transaminase: 42.50 ± 4.93 U
  Total bilirubin: 0.60 ± 0.15 µmol/L
[1]; male rats, hypoxia, 7.31 mg/kg
  Glutamic oxalacetic transaminase: 94.40 ± 12.28 U
  Glutamic-pyruvic transaminase: 43.13 ± 8.92 U
  Total bilirubin: 0.46 ± 0.15 µmol/L
[1]; [10]
  Glutamic oxalacetic transaminase: 109.00 ± 11.68 U
  Glutamic-pyruvic transaminase: 48.25 ± 8.86 U
  Total bilirubin: 0.53 ± 0.15 µmol/L
[2]; [4]
  Serum homocysteine: 9.43 ± 1.4 µmol/L
[2]; [5]
  Serum homocysteine: 10.66 ± 2.13 µmol/L
[2]; [6]
  Serum homocysteine: 9.63 ± 1.97 µmol/L
[2]; [7]
  Serum homocysteine: 8.6 ± 1.72 µmol/L
[2]; [8]
  Serum homocysteine: 8.11 ± 1.37 µmol/L
[2]; female rats, normoxia
  effect on serum homocysteine: no significant effects
[2]; [9]
  Serum homocysteine: 9.76 ± 1.16 µmol/L
[2]; hypoxia exposed female rats
  effect on serum homocysteine: no significant effects
[2]; hypoxia exposed male rats
  effect on serum homocysteine: have been not found
[2]; male rats, hypoxia, 0.91 mg/kg
  Serum homocysteine: 11.18 ± 2.09 µmol/L
[2]; male rats, hypoxia, 1.83 mg/kg
  Serum homocysteine: 13.24 ± 3.87 µmol/L
[2]; male rats, hypoxia, 3.66 mg/kg
  Serum homocysteine: 13.65 ± 3.24 µmol/L
[2]; male rats, hypoxia, 7.31 mg/kg
  Serum homocysteine: 11.48 ± 2.36 µmol/L
[2]; [10]
  Serum homocysteine: 12.78 ± 2.87 µmol/L
[3]; [11]
  effect on nitric oxide: no significant effect
  effect on serum endothelin-1 content: can increase
[3]; [4]
  Endothelin-1: 64.75 ± 2.72 ng/mL
  Nitric oxide: 3.50 ± 1.24 µmol/L
[3]; [5]
  Endothelin-1: 63.21 ± 4.33 ng/mL
  Nitric oxide: 4.47 ± 1.35 µmol/L
[3]; [6]
  Endothelin-1: 68.58 ± 5.38 ng/mL
  Nitric oxide: 6.19 ± 2.06 µmol/L
[3]; [7]
  Endothelin-1: 65.44 ± 14.06 ng/mL
  Nitric oxide: 5.92 ± 2.31 µmol/L
[3]; [8]
  Endothelin-1: 65.26 ± 6.60 ng/mL
  Nitric oxide: 4.62 ± 3.25 µmol/L
[3]; female rats, normoxia
  effect on nitric oxide content: no significant effects
  effect on serum endothelin-1 content: can reduce
[3]; [9]
  Endothelin-1: 47.50 ± 7.31 ng/mL
  Nitric oxide: 5.01 ± 1.57 µmol/L
[3]; hypoxia exposed male rats
  effect on serum endothelin-1 and nitric oxide: no significant effects
[3]; male rats, hypoxia, 0.91 mg/kg
  Endothelin-1: 45.35 ± 4.24 ng/mL
  Nitric oxide: 5.28 ± 0.71 µmol/L
[3]; male rats, hypoxia, 1.83 mg/kg
  Endothelin-1: 42.59 ± 1.45 ng/mL
  Nitric oxide: 5.15 ± 2.11 µmol/L
[3]; male rats, hypoxia, 3.66 mg/kg
  Endothelin-1: 48.14 ± 3.13 ng/mL
  Nitric oxide: 5.35 ± 1.35 µmol/L
[3]; male rats, hypoxia, 7.31 mg/kg
  Endothelin-1: 43.60 ± 0.94 ng/mL
  Nitric oxide: 6.20 ± 2.49 µmol/L

— US20220023289A1, “Application Of Pyrroloquinoline Quinone In Preparation Of Medicament Used For Preventing And Treating Acute Altitude Sickness And Acute Altitude Hypoxia Injury” (priority 2018, published 2022)
